Data on 33 compounds can be found in US4141989A, “Fungicidal 3-(N-chloroacetyl-N-arylamino)-gamma-butyrolactone compositions” (Chevron Research Company, priority 1977, dated 1979).

Holding throughout (type): in vivo
The test system of experiment [1] is Plasmopara viticola. Nature of the experiment: Preventive grape downy mildew control, detached Emperor leaves (Example 5, Table I). Conditions: 100 ppm, sprayed before inoculation.
The subject of experiment [2] is Plasmopara viticola. Nature of the experiment: Eradicant grape downy mildew control, detached Emperor leaves (Example 6, Table I). Conditions: 48 h, sprayed 2 days after inoculation, read-out: Eradicative Grape Downy Mildew Control, %.
The test system of experiment [3] is Plasmopara viticola. Nature of the experiment: Eradicant downy mildew control on Emperor and Carignane grape leaves (Example 9, Table IV).
The test system of experiment [4] is Plasmopara viticola. Nature of the experiment: Preventive grape downy mildew control, detached Cabernet Sauvignon leaves (Example 7, Table II).
Experiment [5] relates to Phytophthora cryptogea. Nature of the experiment: Safflower crown and root rot control by foliar spray (Example 17, Table XII).
For experiment [6], the system named is Pseudoperonospora cubensis. Nature of the experiment: Foliar spray control of cucumber downy mildew (Example 15, Table X).
For experiment [7], the system named is Bremia lactucae. Nature of the experiment: Control of lettuce downy mildew (Example 13, Table VIII).
Experiment [8] concerns Phytophthora cryptogea. Nature of the experiment: Snapdragon crown and root rot control, soil drench (Example 16, Table XI). Conditions: in vivo.
In experiment [9] the test system is Phytophthora cryptogea. Nature of the experiment: Snapdragon crown and root rot control, foliar spray (Example 16, Table XI). Conditions: in vivo.
Where [10] appears, read: Carignane leaves, treated 3 days after inoculation.
Setting [11] is: Emperor leaves, treated 1 day after inoculation.
The mark [12] stands for this setting: Emperor leaves, treated 2 days after inoculation.

As for `Cc1cccc(C)c1N(C(=O)CCl)C1CC(C)OC1=O` (stereo not shown) [B, 3-(N-chloroacetyl-N-2,6-dimethylphenylamino)-5-methyl-gamma-butyrolactone], the pest or weed control at 100 ppm in [1] was 80%. For the same compound, in experiment [2], the pest or weed control at 40 ppm stood at 95%.
Taken in the same sequence, the figures for `CCC(=O)N(c1ccc(Cl)c(Cl)c1)C1CCOC1=O` (stereo not shown) [Compound 1] were 0% and 5%.
`Cc1cccc(C)c1N(C(=O)c1ccc(Cl)c(Cl)c1)C1CCOC1=O` (stereo not shown) [Compound 2]: the pest or weed control at 100 ppm in [2] was 29%.
Take `COc1ccccc1N(C(=O)CCl)C1CCOC1=O` (stereo not shown) [Compound 3]: the values for the pest or weed control at 100 ppm in [1] and in [2] were 0% and 12%, respectively.
For the compound `Cc1cccc(C)c1N(C(=O)CCl)C1CCN(C)C1=O` (stereo not shown) [Compound 4], in experiment [2], the pest or weed control at 100 ppm amounted to 3%.
Still for that read-out and setting: with `O=C1OCCC1N(C(=O)CCl)c1ccccc1` (stereo not shown) [Compound 5] the figure was 0%.
As to `CCc1cccc(CC)c1N(C(=O)CCl)C1CCOC1=O` (stereo not shown) [Compound 6], the pest or weed control at 100 ppm was found to be 0% in experiment [1] and 39% in experiment [2].
For `CC(C)c1ccccc1N(C(=O)CCl)C1CCOC1=O` (stereo not shown) [Compound 7], in [1], the pest or weed control at 100 ppm was determined as 3%. In addition, the pest or weed control at 16 ppm in experiment [2] (16 ppm) was 17%.
`CCc1ccccc1N(C(=O)CCl)C1CCOC1=O` (stereo not shown) [Compound 8]: the pest or weed control at 100 ppm in experiment [1] and in [2] was 0% each time.
As to `O=C1OCCC1N(C(=O)CCl)c1c(Cl)cccc1Cl` (stereo not shown) [Compound 9], the pest or weed control at 100 ppm in experiment [1] was determined as 0%. Besides, in experiment [2], the pest or weed control at 40 ppm came out at 67% and the pest or weed control at 100 ppm was 95%.
Regarding `O=C1OCCC1N(C(=O)CCl)c1ccc(Cl)c(Cl)c1` (stereo not shown) [Compound 10], the pest or weed control at 100 ppm in experiment [1] was 89%; in [2], 39%.
Taken in the same sequence, the figures for `O=C1OCCC1N(C(=O)CCl)c1cc(Cl)cc(Cl)c1` (stereo not shown) [Compound 11] were 45% and 54%.
With `CCc1cccc(CC)c1N(C(=O)CCl)C1CC(C)OC1=O` (stereo not shown) [Compound 12], the pest or weed control at 100 ppm in experiment [2] came out at 87%.
Consider `CCc1cccc(C)c1N(C(=O)CCl)C1CCOC1=O` (stereo not shown) [Compound 13], for which the pest or weed control at 100 ppm in [1] stood at 0%; in experiment [2], 87%.
`CCc1cccc(C)c1N(C(=O)CCl)C1CC(C)OC1=O` (stereo not shown) [Compound 14]: the pest or weed control at 100 ppm in [2] worked out at 29%.
Still for that read-out and setting: with `Cc1cccc(C)c1N(C(=O)CBr)C1CCOC1=O` (stereo not shown) [Compound 15] the figure was 54%.
On to `COc1cccc(OC)c1N(C(=O)CCl)C1CCOC1=O` (stereo not shown) [Compound 16], for which the pest or weed control at 100 ppm in experiment [2] was found to be 67%.
On the same count and under the same terms, with `Cc1cccc(C)c1N(C(=O)CCCl)C1CCOC1=O` (stereo not shown) [Compound 17] the figure was 50%.
In the case of `Cc1cccc(C)c1N(C(=O)CCl)C1CCN(C(C)C)C1=O` (stereo not shown) [Compound 18], the figures for the pest or weed control at 100 ppm in experiment [1] and in [2] were 15% and 37%, respectively.
On to `Cc1cccc(C)c1N(C(=O)C(Cl)=C(Cl)Cl)C1CCOC1=O` (stereo not shown) [Compound 19], for which the pest or weed control at 100 ppm in experiment [2] was 15%.
Turning to `C=CCN1CCC(N(C(=O)CCl)c2c(C)cccc2C)C1=O` (stereo not shown) [Compound 20], in [2], the pest or weed control at 100 ppm is 0%.
Same read-out and setting: with `Cc1cccc(C)c1N(C(=O)CCl)C1CCNC1=O` (stereo not shown) [Compound 21] the figure was 0%; with `Cc1cc(N2CCC(N(C(=O)CCl)c3c(C)cccc3C)C2=O)ccc1Cl` (stereo not shown) [Compound 22], 32%; with `Cc1cccc(C)c1N(C(=O)c1ccc(Cl)cc1)C1CCN(C)C1=O` (stereo not shown) [Compound 23], 0%.
Still for that read-out and setting: with `Cc1cc(C)c(N(C(=O)CCl)C2CCOC2=O)c(C)c1` (stereo not shown) [Compound 24] the figure was 0%; with `Cc1cccc(C(C)(C)C)c1N(C(=O)CCl)C1CCOC1=O` (stereo not shown) [Compound 25], 0%.
As to `Cc1ccc(N(C(=O)CCl)C2CCOC2=O)cc1C` (stereo not shown) [Compound 26], the pest or weed control at 100 ppm in experiment [1] turned out to be 12%; in experiment [2] it was 87%.
Turning to `COC(=O)C(C)N(C(=O)CCl)c1c(C)cccc1C` (stereo not shown) [Compound 27, reference compound], the pest or weed control at 100 ppm in experiment [1] was 78%; in experiment [2], 96%.
For `O=S(=O)([O-])[O-].[Cu+2]` [Cupric sulfate], the “Eradication ED50 (ppm of applied spray for 50% control)” value in [3] (setting [10]) turned out to be 380 ppm; in experiment [3] (setting [11]), 118 ppm; in experiment [3] (setting [12]), 204 ppm. The “Eradication ED90 (ppm of applied spray for 90% control)” value in experiment [3] (setting [10]) is 610 ppm; in experiment [3] (setting [11]), 289 ppm; in experiment [3] (setting [12]) it was 445 ppm.
For the compound `O=C1c2ccccc2C(=O)N1SC(Cl)(Cl)Cl` [Folpet, N-(trichloromethylthio)phthalimide, reference compound], the figures for the “Percent Control” value in [4] (6.4 ppm), in experiment [4] (16 ppm) and in experiment [4] (40 ppm) were 80.1%, 98.8% and 97.7%, respectively.
For `COC(=O)C(C)N(C(=O)CCl)c1c(C)cccc1C` (stereo not shown) [drawing 3, reference compound], the “% Control” value was 0% in [5] (16 ppm), 0% in experiment [5] (40 ppm) and 10% in [5] (100 ppm).
With “Manganous ethylene bisdithiocarbamate [Maneb, reference compound]”, the “% Control” value in experiment [6] (16 ppm) was found to be 80%; in experiment [6] (40 ppm), 90%; in experiment [6] (100 ppm), 98.3%; in experiment [7] (in vivo), 40.6%. Besides, the “% Dead Seedlings” value in experiment [7] is reported as 14.5%.
For “{[1,2-ethanediylbis(carbamodithioato)](2-)} manganese mixture with {[1,2-ethanediylbis(carbamodithioato)](2-)}-0 zinc [Mancozeb, reference compound]”, the “% Control” value in experiment [8] and in experiment [9] was 0% in each case.
